Laboratory results reported in patent US20250282733A1, “NOVEL 1,2,3,4,4A,5,6,7,8,9,10,10A-DODECAHYDROBENZO[G]QUINOLIN-6-OL COMPOUNDS AND USES THEREOF” (priority 2022, published 2025).

How the values were obtained:
Assay type in all cases: in vivo, rat
[1] = system: unilaterally 6-OHDA lesioned rats; test: Contralateral rotations in unilaterally 6-OHDA lesioned rats; conditions: for contralateral turns: dopamine-receptor agonist potency / duration of action as compared to that of apomorphine / bioavailability indicated by contralateral turns after IP and PO administration: 0.1 mg/kg, FIG. 4; for contralateral turns: dopamine-receptor agonist potency: IP (n=4) and PO (n=6); for duration of action as compared to that of apomorphine: IP and PO; for bioavailability indicated by contralateral turns after IP and PO administration: IP vs PO
Procedure: Male Sprague-Dawley rats (150 g; Scanbur, Sweden) were used for this study and housed in separate air-conditioned rooms (12-h dark/light cycle) at 20° C. and a humidity of 53%. Experiments were performed in agreement with the European Communities Council Directive of 24 Nov. 1986 (86/609/EEC) on the ethical use of animals and were approved by the local ethical committee at Karolinska Institute. In most of the experiments, unilaterally 6-OHDA lesioned rats were used to mimic aspects of Parkinsonism. Unilateral 6-OHDA lesioning of nigral dopaminergic axons was performed as previously described (Zhang et al., Neuropharmacology 54 (2008) 1143-1152). Briefly, rats were anesthetized with ketamine (100 mg/kg, i.p.; Parke-Davis, Boxmeer, Netherlands)/xylazine (5 mg/kg, i.p.; Bayer, Kiel, Germany), pretreated with desipramine (25 mg/kg, i.p.; Sigma, Stockholm, Sweden) and pargyline (5 mg/kg, i.p.; Sigma), placed in a stereotaxic instrument and injected with 6-OHDA (2.5 p.I of a 5 mg/ml solution; Sigma) into the medial forebrain bundle of the right hemisphere (AP—2.8 mm, ML—2.0 mm and V—9.0 mm). Two weeks after unilateral 6-OHDA lesioning, rats were administered with apomorphine (1 mg/kg, i.p; Sigma), and their contralateral rotations were measured. […] Only rats which rotated contralaterally more than 100 times were included in further experiments.
The time scale is minutes or hours after administration. […] Negative control animals were injected with saline.

[2] = system: non-pre-treated Sprague-Dawley rats; test: Spontaneous locomotor activity (distance travelled); conditions: 0.3 μmol/kg SC; for effect on motor activity (distance travelled): n=5, 0-180 min, vs saline, FIG. 6 and 7
Procedure: Behavioral activity was measured using eight Digiscan activity monitors (RXYZM (16) TAO, Omnitech Electronics, Columbus, OH, USA), connected to an Omnitech Digiscan analyzer and an Apple Macintosh computer equipped with a digital interface board (NB DIO-24, National Instruments, USA). Each activity monitor consisted of a quadratic metal frame (W×L=40 cm×40 cm) equipped with photo beam sensors. During measurements of behavioral activity, a rat was put in a transparent acrylic cage (W×L×H, 40×40×30 cm) which in turn was placed in the activity monitor. Each activity monitor was equipped with three rows of infrared photo beam sensors, each row consisting of 16 sensors. Two rows were placed along the front and the side of the floor of the cage, at a 90° angle, and the third row was placed 10 cm above the floor to measure vertical activity. Photo beam sensors were spaced 2.5 cm apart. Each activity monitor was fitted in an identical sound and light attenuating box containing a weak house light and a fan.
The computer software was written using object-oriented programming (LabVIEW™ National instruments, Austin, TX, USA).
Behavioral data from each activity monitor, representing the position (horizontal center of gravity and vertical activity) of the animal at each time, were recorded at a sampling frequency of 25 Hz and collected using a custom written LABView™ application. The data from each recording session were stored and analyzed with respect to distance traveled. Each behavioral recording session lasted 180 min, starting approximately 5 min after the injection of test compound.
Compounds disclosed herein have been tested for effects on spontaneous locomotor activity in non-pre-treated Sprague-Dawley rats (based on accumulated distance travelled 0-180 min post dosing), and with the single dose of 0.3 μmol/kg (n=5, SC) compared to a control group of animals (n=5) that obtained saline (SC). The unit of the distance travelled is an arbitrary unit.
The animals were placed in the motility meters immediately after administration and locomotor activity was recorded for 180 minutes.
Results are presented as distance travelled for the control group (empty bar) and for the group of animals that obtained the drug (filled bar).
The animals were placed in the motility meters immediately after administration and locomotor activity was recorded for 180 minutes. Results are presented as distance travelled for the control group (empty bars) and for the group of animals that obtained the drug (filled bar).

[3] = system: Arc mRNA; test: m-RNA analysis of Arc in brain regions (real-time PCR); conditions: 0.3 and 1 μmol/kg SC, 60 min after injection, percent of control, FIG. 5
Procedure: (§1) Animals were killed 60 min after the injection of the drugs by decapitation.
(§2) The brains were dissected into a left and a right part. The left part was analyzed for gene expression and dissected into 4 different areas:
(§3) Limbic system (containing nucleus accumbens, most parts of the olfactory tubercle, ventral pallidum and amygdala), striatum, frontal cortex, and hippocampus.
(§4) Total RNA was prepared by RNeasy Plus Universal Tissue Mini Kit (Qiagen).
(§5) RNA pellets were dissolved in RNAse-free water and stored at −80° C. The sample concentration was determined spectrophotometrically by a NanoDrop ND-1000.
A two-step reversed transcription was performed by using a SuperScript III kit (Invitrogen). 1 μg of total RNA was reversed transcribed with 5 μl 2×RT Reaction Mix, 1 μl RT Enzyme and the mix volume was adjusted to 10 μl with RNAse-free water. The sample was incubated at 25° C. for 10 min, 50° C. for 30 min and finally 85° C. for 5 min. 1 U of E. coli RNase H was added following incubation at 37° C. for 20 min and 85° C. for 5 minutes. The cDNA solution was diluted 40 times in Tris EDTA buffer solution pH8 (Merck) and stored at −20° C.
Three sequences (arc and two reference genes) were amplified together in a triplex PCR-reaction. For real-time PCR measurements: 5 μl of the cDNA reaction was amplified in a 20 μl reaction mixture containing 10 μl PerfeCTa MultiPlex qPCR SuperMix (Quantabio), 3.5 μl RNAse-free water, 0.15 µM of each primer and 0.1 μM of each probe. Real-time PCR was measured on CFX96 (Bio-Rad) using the following settings for all genes: 3 min pre-incubation at 95° C. followed by 40 cycles of denaturation at 95° C. for 15 s, annealing and elongation at 60° C. for 1 min. Reference genes are HPRT and cyclophilin.
FIG. 5 illustrates the effects on tissue levels of Arc mRNA in four different regions of the brain (limbic regions, striatum, frontal cortex and hippocampus) after subcutaneous administration of two different compounds at two different doses as in comparison to that of corresponding control experiments. The bars in the left half of the figure represent the effects on ARC by the prior art compound according to Preparation 4A ((4aR,10aR)-1-propyl-1,2,3,4,4a,5,8,9,10,10a-decahydrobenzo[g]quinolin-6 (7H)-one) and the bars in the right half of the figure represent the effects on ARC by the compound of the present disclosure according to Example 4B ((4aR,10aR)-1-propyl-1,2,3,4,4a,5,6,7,8,9,10,10a-dodecahydrobenzo[g]quinolin-6-ol). The effects on tissue levels of Arc by both of the two aforementioned compounds were measured at two different doses (0.3 μmol/kg and 1 μmol/kg) and the effect is presented as percent of control means±SEM. Statistical significance was assessed using Student's t-test (2 tailed) vs controls.

[4] = system: Npas4; test: m-RNA analysis of Npas4 in brain regions (Taqman PCR); conditions: SC
Procedure: as §1, §2, §3, §4, §5
(§6) A two-step reversed transcription was performed by using a SuperScript III kit (Invitrogen). 1 μg of total RNA was reversed transcribed with 5 μl 2×RT Reaction Mix, 1 μl RT Enzyme and the mix volume was adjusted to 10 μl with RNAse-free water. The sample was incubated at 25° C. for 10 min, 50° C. for 30 min and finally 85° C. for 5 min. […]
(§7) EGR-1 (Early growth response qRnoCEP0022872) was analyzed in duplex with the reference gene HPRT (hypoxanthine phosphoribosyltransferase qRnoCEP0050840). Npas4 (neuronal PAS domain protein4 qRnoCEP0029461) was analyzed in singleplex. The reference gene Ppia (cyclophilin A peptidyl-propyl cis-trans isomerase qRnoCIP0050815) was also analyzed in order to quantify gene expression for genes of interest.

[5] = system: egr-1; test: m-RNA analysis of egr-1 in brain regions (Taqman PCR); conditions: SC
Procedure: as §1, §2, §3, §4, §5, §6, §7

Row | Structure (SMILES) | contralateral turns: dopamine-receptor agonist potency [1] | duration of action as compared to that of apomorphine [1] | bioavailability indicated by contralateral turns after IP and PO administration [1] | contralateral turns as a function of time (course of effect) ([1]; 1 mg/kg i.p., FIG. 3) | on-set of action (distance travelled increases after the initial decrease) [2] | time at which a long distance travelled is already reached (steep immediate effect) [2] | peak plasma concentration of the active species, inferred from locomotor data ([2]; compared to Example 4B) | effect on motor activity (distance travelled) [2] | tissue levels of Arc in the frontal cortex [3] | tissue levels of Arc in the limbic regions [3] | side effect profile, inferred from slower on-set of action [2] | tissue levels of Npas4 in the limbic regions ([4]; 60 min after injection) | increase of Npas4 in the limbic regions compared to Preparation 4A ([4]; vs prior art compound) | tissue levels of egr-1 in the limbic regions ([5]; 60 min after injection) | increase of egr-1 in the limbic regions compared to Preparation 4A ([5]; vs prior art compound)
1 | CCCN1CCC[C@@H]2CC3=C(CCC[C@@H]3O)C[C@H]21 [epimer 2, (4aR,6S,10aR)-1-propyl-1,2,3,4,4a,5,6,7,8,9,10,10a-dodecahydrobenzo[g]quinolin-6-ol] | highly potent dopamine-receptor agonists | very long duration of action | good bioavailability |  |  |  |  |  |  |  |  |  |  |  | 
2 | CN1CCc2cccc3c2[C@H]1Cc1ccc(O)c(O)c1-3 [apomorphine, reference compound] |  |  |  | declines over time |  |  |  |  |  |  |  |  |  |  | 
3 | CCCN1CCC[C@@H]2CC3=C(CCCC3=O)C[C@H]21 [Preparation 4A, (4aR,10aR)-1-propyl-1,2,3,4,4a,5,8,9,10,10a-decahydrobenzo[g]quinolin-6 (7H)-one] |  |  |  |  | 20 to 25 min | 20 to 45 min | higher peak plasma concentration | induce hyperactivity | dose-dependently increase | does not have |  |  |  |  | 
4 | CCCN1CCC[C@@H]2CC3=C(CCC[C@H]3O)C[C@H]21 [Example 4B, (4aR,6R,10aR)-1-propyl-1,2,3,4,4a,5,6,7,8,9,10,10a-dodecahydrobenzo[g]quinolin-6-ol] | highly potent dopamine-receptor agonists | very long duration of action | good bioavailability |  | 35 to 40 min |  |  | induce hyperactivity | dose-dependently increase | dose-dependently increases | no or a mild side effect profile | increases tissue levels | to a greater extent | increases tissue levels | to a greater extent
